The values below are quoted from earlier work in patent US20110008867A1, “COMPOSITIONS AND METHODS FOR THE PRODUCTION OF A COMPOUND” (GREENLIGHT BIOSCIENCES, priority 2008, published 2011).

One series deals with E. coli. To be noted: in E. coli; concentration that inhibits cell growth.
In a further series the test system is yeast. The note with it: in yeast; concentration that inhibits cell growth.

With `CCCCO` [1-butanol], the “Inhibition Concentration” value with E. coli is recorded as 1.3% in E. coli. For the compound `CCCCCCCCCCO` [1-decanol], in the series on E. coli, the “Inhibition Concentration” value is recorded as 0.000236% in E. Coli. For the compound `CCO` [Ethanol], the “Inhibition Concentration” value was 15% in the series on yeast and 5% with E. coli.

For the compound `CCCCCO` [1-pentanol], in the series on E. coli, the “Inhibition Concentration” value is 0.25% in E. Coli.
